# Reference: patent US8642608B2, “Quinazoline derivatives as VEGF inhibitors” (AstraZeneca AB, priority 1999, dated 2014)
# What was measured:
# [1] = tested on: VEGF-stimulated human umbilical vein endothelial cells (HUVEC); experiment: In vitro HUVEC proliferation assay (b), VEGF-stimulated; format: cell-based; details: 96 h, test (b), VEGF 3 ng/ml, 4 days, tritiated-thymidine incorporation
# Description: (§1) (b) In Vitro HUVEC Proliferation Assay
# (§2) HUVEC cells were isolated in MCDB 131 (Gibco BRL)+7.5% v/v foetal calf serum (FCS) and were plated out (at passage 2 to 8), in MCDB 131+2% v/v FCS+3 μg/ml heparin+1 μg/ml hydrocortisone, at a concentration of 1000 cells/well in 96 well plates. After a minimum of 4 hours they were dosed with the appropriate growth factor (i.e. VEGF 3 ng/ml, EGF 3 ng/ml or b-FGF 0.3 ng/ml) and compound. The cultures were then incubated for 4 days at 37° C. with 7.5% carbon dioxide. On day 4 the cultures were pulsed with 1 μCi/well of tritiated-thymidine (Amersham product TRA 61) and incubated for 4 hours. The cells were harvested using a 96-well plate harvester (Tomtek) and then assayed for incorporation of tritium with a Beta plate counter. Incorporation of radioactivity into cells, expressed as cpm, was used to measure inhibition of growth factor-stimulated cell proliferation by compounds.
# [2] = tested on: EGF-stimulated human umbilical vein endothelial cells (HUVEC); experiment: In vitro HUVEC proliferation assay (b), EGF-stimulated; format: cell-based; details: 96 h, test (b), EGF 3 ng/ml, 4 days, tritiated-thymidine incorporation
# Description: as §1, §2
# [3] = tested on: human umbilical vein endothelial cells (HUVEC), basal; experiment: In vitro HUVEC proliferation assay (b), basal; format: cell-based; details: test (b)
# CaLu-6 tumour xenografts = experiment: In vivo solid tumour disease model (c); parameters: species or system female athymic Swiss nu/nu mice; details: 50 mg/kg, orally once daily, CaLu-6 xenografts in mice; p<0.001 (Mann-Whitney Rank Sum Test)
# Description: (c) In Vivo Solid Tumour Disease Model
# This test measures the capacity of compounds to inhibit solid tumour growth.
# CaLu-6 tumour xenografts were established in the flank of female athymic Swiss nu/nu mice, by subcutaneous injection of 1×10^6 CaLu-6 cells/mouse in 100 μl of a 50% (v/v) solution of Matrigel in serum free culture medium. […] Tumours were measured using vernier calipers and volumes were calculated as: (l×w)×√(1×w)×(π/6), where 1 is the longest diameter and w the diameter perpendicular to the longest diameter. Test compounds were administered orally once daily for a minimum of 21 days, and control animals received compound diluent. Tumours were measured twice weekly. The level of growth inhibition was calculated by comparison of the mean tumour volume of the control group versus the treatment group, and statistical significance determined using a Students' t-test and/or a Mann-Whitney Rank Sum Test. The inhibitory effect of compound treatment was considered significant when p<0.05.
# [4] = tested on: femoral epiphyseal growth plates of the distal femur and proximal tibia; experiment: 14 day toxicity test in rat (d); format: in vivo, Alderley Park rats (Wistar derived); details: 100 mg/kg/day, oral gavage, 14 days, female rats; p<0.001 (one-tailed Students' t-test)
# Source text: The toxicological profile of compounds of the present invention may be assessed, for example using a rat 14 day study as described hereinafter.
# (d) 14 Day Toxicity Test in Rat
# This test measures the activity of compounds in increasing the zone of hypertrophy in the femoral epiphyseal growth plates of the distal femur and proximal tibia, and allows assessment of histopathological changes in other tissues.
# A. Preclinical Safety Evaluation of rhuMAbVEGF, an antiangiogenic humanised monoclonal antibody, Tox. Path., 27: 78-86, 1999).
# Compounds were initially formulated by suspension in a 1% (v/v) solution of polyoxyethylene (20) sorbitan mono-oleate in deionised water, by ball-milling at 4° C. overnight (at least 15 hours). Compounds were re-suspended by agitation immediately prior to dosing. […] The femoral epiphyseal growth plate areas of the distal femur and proximal tibia were measured in sections of femur and tibia using morphometric image analysis. The increase in the zone of hypertrophy was determined by comparison of the mean epiphyseal growth plate area of the control group versus the treatment group, and statistical significance determined using a one-tailed Students' t-test. […]
compound,measurement,setting,value
"COc1cc2c(Nc3ccc(Br)cc3F)ncnc2cc1OCC1CCN(C)CC1 [Example 2, 4-(4-bromo-2-fluoroanilino)-6-methoxy-7-(1-methylpiperidin-4-ylmethoxy)quinazoline]",IC50,[1],60 nM
same,IC50,[2],170 nM
same,IC50,[3],> 3000 nM
same,inhibition of tumour growth,CaLu-6 tumour xenografts,78%
same,increase in epiphyseal growth plate hypertrophy,[4],75%
